This is an account of results in PMC8552601, “Entamoeba Chitinase is Required for Mature Round Cyst Formation” (Microbiology Spectrum, 2021).

Molecules are shown by their SMILES.

Common to all, as to type: biochemical
Test [1] concerns the target T1, Entamoeba invadens chitinase 4 (rEiCht4) (Entamoeba invadens, UniProt A0A0A1TXF4).
T1 construct: gene EIN_136020
Nature of the test: fluorogenic 4MU-(GlcNAc)[…] hydrolysis assay with purified recombinant enzyme.

Test [2] deals with T2, Entamoeba invadens chitinase 1 (rEiCht1) (Entamoeba invadens, UniProt A0A0A1U6V8).
T2 construct: gene EIN_404540
Described as above.

Test [3] concerns the target T1, Entamoeba invadens chitinase 4 (rEiCht4). Nature of the test: 4-MU release by purified recombinant enzyme, specific activity.
Test [4] deals with T2, Entamoeba invadens chitinase 1 (rEiCht1). Described as above.

T1 sequence (A0A0A1TXF4 entry or part of it): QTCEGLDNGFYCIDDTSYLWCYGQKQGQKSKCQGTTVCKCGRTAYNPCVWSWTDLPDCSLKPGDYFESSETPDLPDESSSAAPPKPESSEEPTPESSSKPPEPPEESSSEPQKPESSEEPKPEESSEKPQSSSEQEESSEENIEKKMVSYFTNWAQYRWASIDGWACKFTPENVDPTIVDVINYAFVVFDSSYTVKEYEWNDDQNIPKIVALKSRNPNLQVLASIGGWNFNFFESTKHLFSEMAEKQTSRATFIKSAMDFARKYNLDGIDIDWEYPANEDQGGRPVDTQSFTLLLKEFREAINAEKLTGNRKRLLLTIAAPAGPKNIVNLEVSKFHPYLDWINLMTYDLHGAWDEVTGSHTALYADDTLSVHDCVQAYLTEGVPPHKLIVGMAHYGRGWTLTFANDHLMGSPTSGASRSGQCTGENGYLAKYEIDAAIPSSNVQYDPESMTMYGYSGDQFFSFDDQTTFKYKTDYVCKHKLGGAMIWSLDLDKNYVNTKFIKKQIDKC
T2 sequence (A0A0A1U6V8 entry or part of it): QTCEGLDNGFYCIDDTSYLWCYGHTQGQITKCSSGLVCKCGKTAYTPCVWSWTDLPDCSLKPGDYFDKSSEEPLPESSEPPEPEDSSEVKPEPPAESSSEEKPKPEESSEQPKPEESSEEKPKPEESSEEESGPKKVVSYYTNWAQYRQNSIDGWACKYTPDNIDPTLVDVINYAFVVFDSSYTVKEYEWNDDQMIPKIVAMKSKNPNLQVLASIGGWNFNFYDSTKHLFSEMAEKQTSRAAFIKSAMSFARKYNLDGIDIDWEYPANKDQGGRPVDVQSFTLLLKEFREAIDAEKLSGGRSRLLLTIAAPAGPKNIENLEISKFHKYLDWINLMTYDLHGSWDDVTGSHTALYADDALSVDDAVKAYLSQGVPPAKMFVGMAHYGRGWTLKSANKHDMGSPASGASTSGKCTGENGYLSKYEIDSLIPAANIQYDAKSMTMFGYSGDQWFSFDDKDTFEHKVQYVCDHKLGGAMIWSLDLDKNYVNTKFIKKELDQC

What is called IC50 is the midpoint of a concentration-inhibition curve. For the compound `Cc1nn(C)c(C)c1NS(=O)(=O)c1c(Cl)cc(-c2ccnc(N3CCNCC3)c2)cc1Cl` [D-B-09, 2,6-dichloro-4-[2-(1-piperazinyl)-4-pyridinyl]-N-(1,3,5-trimethyl-1H-pyrazol-4-yl)-benzenesulfonamide], the concentration for half-maximal inhibition (IC50) in test [1] was found to be 2500 ± 1300 nM; in test [2], 800 ± 200 nM.
With `CC(=O)N[C@H]1[C@H](Oc2ccc3c(C)cc(=O)oc3c2)O[C@H](CO)[C@@H](O[C@@H]2O[C@H](CO)[C@@H](O[C@@H]3O[C@H](CO)[C@@H](O)[C@H](O)[C@H]3NC(C)=O)[C@H](O)[C@H]2NC(C)=O)[C@@H]1O` [4-methylumbelliferyl β-D-N,N′,N′′-triacetylchitotrioside], the entries for the “4-MU release by purified recombinant enzyme, specific activity” value in test [3] and in test [4] were 6.3 ± 1.1 μmol/min/mg protein and 11.7 ± 5.3 μmol/min/mg protein, respectively.
